Measurements taken from the NIST ThermoML archive (doi:10.1016/j.jct.2012.08.020).

Assay: xn = mol fraction of the nth substance listed
Conditions: Fluid (supercritical or subcritical phases)

CCCCC(COC(=O)C(=O)OCC)OC(=O)C(=O)OCC (stereo not given) [1,2-hexanediol bis-(ethoxycarbonylformate)] + O=C=O
Conditions | mass density [kg/m3]
313 K, x1 = 0.00125 | 556.08
313 K, x1 = 0.00238 | 584.52
313 K, x1 = 0.00345 | 606.4
313 K, x1 = 0.00447 | 624.05
313 K, x1 = 0.00552 | 631.74
333 K, x1 = 0.00179 | 389.65
333 K, x1 = 0.00331 | 420.8
333 K, x1 = 0.00471 | 443.89
333 K, x1 = 0.00608 | 458.89
333 K, x1 = 0.00748 | 466.23
353 K, x1 = 0.00251 | 277.12
353 K, x1 = 0.00456 | 305.62
353 K, x1 = 0.00632 | 331.22
353 K, x1 = 0.00821 | 339.94
353 K, x1 = 0.00988 | 353.15

CCCCC(O)CO (stereo not given) [1,2-hexanediol] + O=C=O
Conditions | mass density [kg/m3]
313 K, x1 = 0.00073 | 677.07
313 K, x1 = 0.00136 | 730.15
313 K, x1 = 0.00197 | 756.91
313 K, x1 = 0.00256 | 778.16
313 K, x1 = 0.0031 | 802.54
333 K, x1 = 0.00091 | 547.92
333 K, x1 = 0.00169 | 589.92
333 K, x1 = 0.00241 | 619.81
333 K, x1 = 0.00312 | 638.84
333 K, x1 = 0.0038 | 655.62
353 K, x1 = 0.00109 | 457.46
353 K, x1 = 0.00196 | 506.95
353 K, x1 = 0.00281 | 530.61
353 K, x1 = 0.00363 | 549.26
353 K, x1 = 0.00442 | 563.72

CCCCC(COC(=O)C(=O)OC)OC(=O)C(=O)OC (stereo not given) [1,2-hexanediol bis-(methoxycarbonylformate)] + O=C=O
Conditions | mass density [kg/m3]
313 K, x1 = 0.00173 | 436.05
313 K, x1 = 0.00309 | 492.75
313 K, x1 = 0.00442 | 517.19
313 K, x1 = 0.00567 | 538.22
313 K, x1 = 0.00686 | 556.08
333 K, x1 = 0.00241 | 316.53
333 K, x1 = 0.00416 | 366.67
333 K, x1 = 0.00576 | 397.42
333 K, x1 = 0.00739 | 413.01
333 K, x1 = 0.00874 | 436.26
353 K, x1 = 0.00318 | 239.41
353 K, x1 = 0.00558 | 273.18
353 K, x1 = 0.00729 | 314.05
353 K, x1 = 0.00921 | 331.22
353 K, x1 = 0.01094 | 348.73
